Where two headings read alike, the source gives them in different places.
How the values were obtained:
[1] = system: patients with chronic GVHD; experiment: Study KD025-213 efficacy, belumosudil 200 mg daily cohort; type: in vivo, human; conditions: for Median time from first response to death or new systemic therapy: 49 responders; for Overall response rate (ORR) through Cycle 7 Day 1 (CR or PR): N=65, 2014 NIH consensus criteria, FDA adjudicated; for Patients with 7-point or greater decrease in Lee Symptom Scale summary score through Cycle 7 Day 1: N=65, exploratory; for Median duration of response: responders
[2] = Clinical pharmacokinetics of belumosudil; type: in vivo, human
[3] = Population pharmacokinetics; set-up: species or system human; conditions: in comparison to healthy volunteers
CYP3A4 = CYP3A4 (Homo sapiens, UniProt P08684); experiment: In vitro metabolism; type: in vitro ADME
CYP2C8 = CYP2C8 (Homo sapiens, UniProt P10632); experiment: In vitro metabolism; type: in vitro ADME
ROCK2 = ROCK2 (Homo sapiens, UniProt O75116); experiment: ROCK2 inhibition; type: biochemical
patients with cGVHD [4] = experiment: Study KD025-208 dose-escalation trial; type: in vivo, human; conditions: 200 mg daily, 200 mg twice daily and 400 mg daily; 54 patients failing 1-3 prior lines
patients with cGVHD [5] = experiment: Pooled exposure-response analyses; set-up: species or system human; conditions: 186 patients
UGT1A1 [6] = biological target: T1, UGT1A1 (Homo sapiens, UniProt P22309); experiment: UGT1A1 inhibition; type: in vitro ADME; conditions: at concentrations that could be achieved clinically
Photoabsorbance in vitro = type: physicochemical
Tissue distribution = conditions: in vivo
[7] = biological target: human ether-à-go-go-related gene (hERG) current (Homo sapiens, UniProt Q12809); experiment: hERG current in vitro; type: biochemical
animals = experiment: Animal toxicology studies; type: in vivo
dogs = experiment: Safety pharmacology studies in dogs; type: in vivo, dog
[8] = Reproductive toxicity studies; conditions: in vivo
[9] = system: adult patients with cGVHD; experiment: Clinical safety, Studies KD025-208 and KD025-213, belumosudil 200 mg daily; type: in vivo, human
[10] = cited from earlier work
ROCK1 isoform = conditions: in vitro, compared with ROCK2; cited from earlier work
mTOR pathway = conditions: in vitro; cited from earlier work
[11] = system: human peripheral blood mononuclear cells; conditions: CD3-CD28 stimulation of human PBMC, ex-vivo or in vitro; cited from earlier work
STAT3 = conditions: ex-vivo or in vitro; cited from earlier work
MRTF = conditions: ex-vivo or in vitro; cited from earlier work
cGVHD mouse models = conditions: cited from earlier work
UGT1A1 [12] = biological target: T1, UGT1A1; conditions: cited from earlier work
p-glycoprotein = conditions: cited from earlier work
BCRP = conditions: cited from earlier work
OATP1B1 = conditions: cited from earlier work
CYP1A2 = conditions: cited from earlier work
CYP2C19 = conditions: cited from earlier work
CYP2D6 = CYP2D6 (Homo sapiens, UniProt P10635); conditions: cited from earlier work
CYP3A = conditions: cited from earlier work
[13] = N=65, through Cycle 7 Day 1, listed as belumosudil
[14] = with proton pump inhibitor rabeprazole
[15] = with strong CYP3A inducer rifampicin

Sequence of ROCK2 (O75116 whole entry): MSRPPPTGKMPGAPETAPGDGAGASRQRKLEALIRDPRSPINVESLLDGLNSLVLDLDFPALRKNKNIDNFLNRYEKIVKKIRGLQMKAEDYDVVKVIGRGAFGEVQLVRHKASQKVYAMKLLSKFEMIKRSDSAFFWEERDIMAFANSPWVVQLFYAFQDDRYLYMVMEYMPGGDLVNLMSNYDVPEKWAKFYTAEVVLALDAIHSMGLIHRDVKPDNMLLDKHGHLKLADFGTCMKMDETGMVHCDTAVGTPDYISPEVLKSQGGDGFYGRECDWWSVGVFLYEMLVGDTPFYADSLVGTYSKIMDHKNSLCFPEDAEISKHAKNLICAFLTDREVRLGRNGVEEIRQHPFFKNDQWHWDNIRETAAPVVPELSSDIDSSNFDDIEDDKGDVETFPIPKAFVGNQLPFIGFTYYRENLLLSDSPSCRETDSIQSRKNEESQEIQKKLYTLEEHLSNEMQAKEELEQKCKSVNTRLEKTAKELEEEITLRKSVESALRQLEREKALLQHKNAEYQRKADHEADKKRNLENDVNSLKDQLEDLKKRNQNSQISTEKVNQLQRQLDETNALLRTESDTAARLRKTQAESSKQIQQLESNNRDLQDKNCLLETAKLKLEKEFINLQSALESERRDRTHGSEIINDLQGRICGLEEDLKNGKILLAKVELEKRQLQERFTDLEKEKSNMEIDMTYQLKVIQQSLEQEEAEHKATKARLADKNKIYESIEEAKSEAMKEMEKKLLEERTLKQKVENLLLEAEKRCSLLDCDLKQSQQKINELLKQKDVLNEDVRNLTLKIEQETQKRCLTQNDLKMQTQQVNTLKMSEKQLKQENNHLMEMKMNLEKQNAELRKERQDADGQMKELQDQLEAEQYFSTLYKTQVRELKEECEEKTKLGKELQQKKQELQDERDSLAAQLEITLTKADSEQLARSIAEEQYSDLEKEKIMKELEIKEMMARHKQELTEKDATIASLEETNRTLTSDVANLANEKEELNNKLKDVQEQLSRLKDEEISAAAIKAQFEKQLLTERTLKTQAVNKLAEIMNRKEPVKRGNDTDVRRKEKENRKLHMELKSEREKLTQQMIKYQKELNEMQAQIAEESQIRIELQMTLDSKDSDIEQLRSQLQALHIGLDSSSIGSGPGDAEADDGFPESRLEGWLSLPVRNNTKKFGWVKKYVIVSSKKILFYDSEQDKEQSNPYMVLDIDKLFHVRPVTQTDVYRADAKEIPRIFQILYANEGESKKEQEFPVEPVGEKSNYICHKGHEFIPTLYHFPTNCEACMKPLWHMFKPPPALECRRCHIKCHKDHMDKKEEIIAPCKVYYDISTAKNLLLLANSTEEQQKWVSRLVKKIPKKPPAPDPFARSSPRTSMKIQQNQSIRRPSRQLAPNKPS
T1 sequence (P22309 26-533): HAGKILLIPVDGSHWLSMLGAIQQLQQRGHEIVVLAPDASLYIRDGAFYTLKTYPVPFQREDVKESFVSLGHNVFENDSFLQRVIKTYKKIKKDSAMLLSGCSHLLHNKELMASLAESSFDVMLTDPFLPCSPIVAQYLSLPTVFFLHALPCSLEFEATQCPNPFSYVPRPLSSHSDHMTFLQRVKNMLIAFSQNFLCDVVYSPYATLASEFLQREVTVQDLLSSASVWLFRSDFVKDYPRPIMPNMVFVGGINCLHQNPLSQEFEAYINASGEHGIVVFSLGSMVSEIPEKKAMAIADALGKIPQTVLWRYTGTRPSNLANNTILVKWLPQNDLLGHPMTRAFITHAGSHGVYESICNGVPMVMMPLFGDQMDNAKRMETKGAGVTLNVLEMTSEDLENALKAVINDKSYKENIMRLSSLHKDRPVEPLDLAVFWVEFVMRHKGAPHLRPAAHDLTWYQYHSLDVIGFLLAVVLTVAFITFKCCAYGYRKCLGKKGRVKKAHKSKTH
Sequence of CYP2C8 (P10632 whole entry): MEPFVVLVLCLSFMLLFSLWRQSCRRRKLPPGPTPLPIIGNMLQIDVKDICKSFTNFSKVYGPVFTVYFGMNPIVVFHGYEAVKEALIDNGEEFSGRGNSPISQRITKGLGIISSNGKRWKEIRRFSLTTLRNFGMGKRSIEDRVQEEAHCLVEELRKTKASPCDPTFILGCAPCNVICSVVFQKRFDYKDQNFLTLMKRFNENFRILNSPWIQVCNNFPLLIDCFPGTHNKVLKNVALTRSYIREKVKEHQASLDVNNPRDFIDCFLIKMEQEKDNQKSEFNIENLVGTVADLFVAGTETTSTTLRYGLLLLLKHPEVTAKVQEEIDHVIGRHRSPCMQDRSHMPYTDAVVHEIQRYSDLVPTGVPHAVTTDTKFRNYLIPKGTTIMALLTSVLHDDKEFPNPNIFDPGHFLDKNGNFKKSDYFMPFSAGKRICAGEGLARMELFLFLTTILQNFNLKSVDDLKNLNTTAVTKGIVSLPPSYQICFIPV
Sequence of CYP3A4 (P08684 whole entry): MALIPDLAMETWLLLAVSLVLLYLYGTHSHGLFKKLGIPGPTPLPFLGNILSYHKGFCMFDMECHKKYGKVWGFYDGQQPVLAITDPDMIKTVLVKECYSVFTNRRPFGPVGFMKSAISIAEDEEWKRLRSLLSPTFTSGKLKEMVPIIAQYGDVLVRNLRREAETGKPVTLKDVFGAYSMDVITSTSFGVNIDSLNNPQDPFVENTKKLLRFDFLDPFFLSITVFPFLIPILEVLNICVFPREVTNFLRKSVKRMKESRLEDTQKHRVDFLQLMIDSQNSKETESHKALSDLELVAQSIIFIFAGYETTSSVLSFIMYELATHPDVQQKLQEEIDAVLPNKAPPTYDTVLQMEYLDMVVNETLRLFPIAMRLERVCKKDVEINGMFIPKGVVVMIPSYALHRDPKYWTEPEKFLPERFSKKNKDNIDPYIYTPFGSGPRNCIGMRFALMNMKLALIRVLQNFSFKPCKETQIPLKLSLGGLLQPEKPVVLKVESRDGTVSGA
Sequence of human ether-à-go-go-related gene (hERG) current (Q12809 whole entry): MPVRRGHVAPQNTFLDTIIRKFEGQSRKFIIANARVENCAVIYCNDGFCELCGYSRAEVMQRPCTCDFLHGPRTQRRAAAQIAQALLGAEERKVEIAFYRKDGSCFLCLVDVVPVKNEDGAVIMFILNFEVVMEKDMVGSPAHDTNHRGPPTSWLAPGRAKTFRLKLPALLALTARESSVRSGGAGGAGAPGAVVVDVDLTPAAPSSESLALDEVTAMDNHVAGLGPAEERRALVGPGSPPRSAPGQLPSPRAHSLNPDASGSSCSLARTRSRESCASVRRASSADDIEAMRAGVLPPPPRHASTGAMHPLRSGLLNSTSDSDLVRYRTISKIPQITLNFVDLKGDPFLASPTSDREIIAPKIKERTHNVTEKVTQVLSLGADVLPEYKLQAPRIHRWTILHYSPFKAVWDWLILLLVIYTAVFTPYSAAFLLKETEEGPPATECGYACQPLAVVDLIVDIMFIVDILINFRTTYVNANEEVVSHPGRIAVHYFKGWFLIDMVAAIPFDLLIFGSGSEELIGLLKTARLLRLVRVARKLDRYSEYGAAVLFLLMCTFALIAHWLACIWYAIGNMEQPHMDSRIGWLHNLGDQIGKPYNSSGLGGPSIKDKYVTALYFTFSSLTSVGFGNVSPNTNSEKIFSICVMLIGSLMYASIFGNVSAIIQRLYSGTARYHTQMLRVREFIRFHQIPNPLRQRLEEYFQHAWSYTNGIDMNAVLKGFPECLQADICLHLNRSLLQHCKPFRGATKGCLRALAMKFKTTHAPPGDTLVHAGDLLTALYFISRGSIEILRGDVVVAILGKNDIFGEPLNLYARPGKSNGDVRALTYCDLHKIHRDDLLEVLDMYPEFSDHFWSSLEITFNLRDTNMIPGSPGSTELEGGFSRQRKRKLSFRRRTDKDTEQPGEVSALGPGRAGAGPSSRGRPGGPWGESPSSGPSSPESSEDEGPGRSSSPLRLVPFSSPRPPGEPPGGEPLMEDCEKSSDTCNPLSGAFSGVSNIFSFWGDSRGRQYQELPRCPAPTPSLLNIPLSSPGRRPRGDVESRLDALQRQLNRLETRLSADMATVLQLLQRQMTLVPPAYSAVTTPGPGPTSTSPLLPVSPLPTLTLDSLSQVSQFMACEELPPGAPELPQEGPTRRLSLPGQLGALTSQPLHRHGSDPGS
Sequence of CYP2D6 (P10635 whole entry): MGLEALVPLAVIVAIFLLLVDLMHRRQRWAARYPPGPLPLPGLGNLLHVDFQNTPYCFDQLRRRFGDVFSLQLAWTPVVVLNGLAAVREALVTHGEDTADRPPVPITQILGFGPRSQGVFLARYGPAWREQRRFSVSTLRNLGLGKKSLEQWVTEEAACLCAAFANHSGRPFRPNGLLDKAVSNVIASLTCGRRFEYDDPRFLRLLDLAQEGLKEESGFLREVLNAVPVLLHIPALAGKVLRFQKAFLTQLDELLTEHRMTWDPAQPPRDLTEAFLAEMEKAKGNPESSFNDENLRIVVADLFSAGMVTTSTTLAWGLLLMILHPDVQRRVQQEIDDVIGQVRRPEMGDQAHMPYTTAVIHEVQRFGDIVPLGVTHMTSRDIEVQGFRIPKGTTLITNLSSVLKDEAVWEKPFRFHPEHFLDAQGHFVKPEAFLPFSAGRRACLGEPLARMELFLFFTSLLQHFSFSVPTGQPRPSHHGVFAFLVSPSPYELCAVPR

CC(C)NC(=O)COc1cccc(-c2nc(Nc3ccc4[nH]ncc4c3)c3ccccc3n2)c1 [Belumosudil]
Median time from first response to death or new systemic therapy [1]: Not estimable | Median time from first response to death or new systemic therapy ([1]; listed as belumosudil): not reached | Overall response rate (ORR) through Cycle 7 Day 1 (CR or PR) [1]: 49 (75%) (63% - 85%) | Overall response rate (ORR) through Cycle 7 Day 1 (CR or PR) ([1]; listed as belumosudil): 75% | Patients with 7-point or greater decrease in Lee Symptom Scale summary score through Cycle 7 Day 1 [1]: (52%) (40% - 65%) | Patients with 7-point or greater decrease in Lee Symptom Scale summary score through Cycle 7 Day 1 ([1]; listed as belumosudil): 52% | Complete Response (CR) ([1]; N=65, through Cycle 7 Day 1): 4 (6%) | Partial Response (PR) ([1]; N=65, through Cycle 7 Day 1): 45 (69%) | Complete Response (CR) [1, 13]: 6% | Partial Response (PR) [1, 13]: 69% | Median duration of response [1]: 1.9 months (1.2-2.9 months) | Median duration of response ([1]; listed as belumosudil): 1.9 months | Delay of Tmax with food ([2]; administration with food): 0.5 h | Increase of AUC with food ([2]; administration with food): 2 times | Increase of Cmax with food ([2]; administration with food): 2.2 times | Excretion in feces unchanged ([2]; human, in vivo): 30% | Tmax ([2]; human, in vivo, oral): 1.26 h | Effect of a diagnosis of GVHD on clearance [3]: decreased clearance | Metabolism by CYP3A4 (CYP3A4): metabolized primarily | Metabolism by CYP2C8 (CYP2C8): to a lesser extent | ROCK2 inhibition (ROCK2): inhibitor | Activity in cGVHD (patients with cGVHD [4]): appeared to be active | Relationship of response with exposure (patients with cGVHD [5]): no relationship | UGT1A1 inhibition (UGT1A1 [6]): inhibited | Photoabsorbance (Photoabsorbance in vitro): observed | Tissue distribution (Tissue distribution): distributed to photosensitive areas such as skin and uveal tract | hERG current [7]: blocked | Target organs of toxicity (animals): toxicities were observed in the gastrointestinal tract, liver, kidney, hemolymphoid system, and reproductive system | Effect on blood pressure (dogs): lowering of the blood pressure | Embryo-fetal toxicity [8]: embryo-fetal toxicity | Male fertility [8]: impaired male fertility | Incidence of Viral infection ([9]; Grades ≥ 3, 200 mg daily, n=83): 4% | Adverse reactions leading to dose interruption ([9]; human, in vivo): 29% | Dose interruption due to diarrhea ([9]; human, in vivo): 4% | Dose interruption due to infections ([9]; human, in vivo): 11% | Reduction of belumosudil Cmax [10, 14]: up to 87% | Reduction of belumosudil overall exposure [10, 14]: up to 80% | Reduction of belumosudil Cmax [10, 15]: approximately 60% | Reduction of belumosudil overall exposure [10, 15]: approximately 72% | ROCK1 isoform inhibition (ROCK1 isoform): with less potency | mTOR pathway inhibition (mTOR pathway): inhibited | Secretion of IL-21 and IL-17 [11]: inhibited | STAT3 phosphorylation and transcriptional activity (STAT3): inhibited | MRTF-mediated gene expression (MRTF): inhibited | cGVHD-related clinical and histological abnormality scores in the lung and skin (cGVHD mouse models): improvement | UGT1A1 inhibition (UGT1A1 [12]): inhibit | p-glycoprotein inhibition (p-glycoprotein): inhibit | BCRP inhibition (BCRP): inhibit | OATP1B1 inhibition (OATP1B1): inhibit | CYP1A2 inhibition (CYP1A2): inhibit | CYP2C19 inhibition (CYP2C19): inhibit | CYP2D6 inhibition (CYP2D6): inhibit | Effect on CYP3A (CYP3A): little effect

O=C(O)COc1cccc(-c2nc(Nc3ccc4[nH]ncc4c3)c3ccccc3n2)c1 [KD025m2]
ROCK2 inhibition (ROCK2): inhibit

NC(=O)COc1cccc(-c2nc(Nc3ccc4[nH]ncc4c3)c3ccccc3n2)c1 [KD025m1]
ROCK2 inhibition (ROCK2): inhibit

— PMC9197942 (Clinical cancer research : an official journal of the …, 2022)
